{
  "source": "PubChem BioAssay AID2743",
  "about": "(NMMLSC, 2010)",
  "note": "The source made the active and inactive calls.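 How the source made its calls: active means fitted half-maximal concentration for change in GFP expression of 33 µM or less; inactive means the rest.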",
  "data": [
    {"assay": "concentration-dependent AGP1-GFP change, TOR pathway – cell-based, flow cytometry, S. cerevisiae, MLPCN hits, dose response (AID 2743)", "details": "S. cerevisiae AGP1-GFP strain, flow cytometry GFP, 3 h; at 33 µM (top of the series)", "values": [
      {"molecule": "O=[N+]([O-])c1cc(S(=O)(=O)C(F)(F)F)ccc1Sc1nc2ccccc2s1", "GFP fluorescence (kMESF)": "39.1 kMESF (inactive)"},
      {"molecule": "CC(C)(C)n1nc(-c2ccc(F)cc2)c2c(N)ncnc21", "GFP fluorescence (kMESF)": "40.2 kMESF (inactive)"},
      {"molecule": "CCCCCn1c(=O)c(C(=O)Nc2nc3ccccc3[nH]2)c(O)c2ccccc21", "GFP fluorescence (kMESF)": "36.9 kMESF (inactive)"},
      {"molecule": "Cc1ccc(C2=NOC(=O)/C2=C\\c2ccc(C)o2)cc1", "GFP fluorescence (kMESF)": "32.4 kMESF (inactive)"},
      {"molecule": "CSC1=NS(=O)(=O)c2c(C)nn(C)c2S1", "GFP fluorescence (kMESF)": "45.6 kMESF (inactive)"},
      {"molecule": "Cc1cc(C)c(S(=O)(=O)ON2C(=O)c3ccccc3C2=O)cc1C", "GFP fluorescence (kMESF)": "42.8 kMESF (inactive)"},
      {"molecule": "CCn1c(/C=C/c2ccc([N+](=O)[O-])o2)nc2ccccc2c1=O", "GFP fluorescence (kMESF)": "-51 kMESF (inactive)"},
      {"molecule": "COc1ccccc1N1C(=O)c2cccc3c(C(=O)O)ccc(c23)C1=O", "GFP fluorescence (kMESF)": "49 kMESF (inactive)"},
      {"molecule": "CC(C)[C@@]1(c2ccccc2)ON(c2ccccc2C(F)(F)F)C1=O", "GFP fluorescence (kMESF)": "37.1 kMESF (inactive)"},
      {"molecule": "O=C(c1ccc(C(=O)N2CCCc3ccccc32)s1)N1CCCc2ccccc21", "GFP fluorescence (kMESF)": "38.6 kMESF (inactive)"},
      {"molecule": "CN(O)/C=c1/ccc2c(n1)C(=O)C=CC=2", "GFP fluorescence (kMESF)": "39.5 kMESF (inactive)"},
      {"molecule": "COc1ccc(N2C(=O)C(Cl)=C(Oc3cccc(OC)c3)C2=O)cc1", "GFP fluorescence (kMESF)": "38.8 kMESF (inactive)"},
      {"molecule": "COc1ccc(C(=O)/C=C2/C(=O)Nc3ccccc32)cc1", "GFP fluorescence (kMESF)": "44.8 kMESF (inactive)"},
      {"molecule": "O=C(COc1ccc(F)cc1Cl)Nc1nc(-c2ccccn2)cs1", "GFP fluorescence (kMESF)": "33.9 kMESF (inactive)"},
      {"molecule": "C[C@H]1C[C@@H](C)C(=O)[C@@H]([C@H](O)CC2CC(=O)NC(=O)C2)C1", "GFP fluorescence (kMESF)": "25.3 kMESF (inactive)"},
      {"molecule": "O=C1NC(=S)NC(=O)C1=Cc1ccc2c(c1)CCN2CCCCl", "GFP fluorescence (kMESF)": "35 kMESF (inactive)"},
      {"molecule": "Oc1ccc(Br)cc1/C=N/Nc1ccccn1", "GFP fluorescence (kMESF)": "36.6 kMESF (inactive)"},
      {"molecule": "O=C(/C=C/c1ccc(Cl)c([N+](=O)[O-])c1)c1cccnc1", "GFP fluorescence (kMESF)": "35.8 kMESF (inactive)"},
      {"molecule": "COC(=O)c1cc(N2C(=O)C3C(C2=O)C2(C)C=CC3(C)O2)ccc1Cl", "note": "(centres undefined)", "GFP fluorescence (kMESF)": "47.1 kMESF (inactive)"},
      {"molecule": "O=C1ON=C(c2ccc(Cl)cc2)/C1=C/c1ccc(O)cc1", "GFP fluorescence (kMESF)": "23.3 kMESF (inactive)"},
      {"molecule": "Cc1cc(C(=O)COC(=O)c2ccc[nH]c2=O)c(C)n1-c1ccccc1F", "GFP fluorescence (kMESF)": "24.1 kMESF (inactive)"},
      {"molecule": "O=C(/C=C/c1ccccn1)c1ccc(Br)cc1O", "GFP fluorescence (kMESF)": "20.4 kMESF (inactive)"},
      {"molecule": "CCC1(c2ccccc2)ON(c2c(Br)cccc2Br)C1=O", "note": "(centres undefined)", "GFP fluorescence (kMESF)": "28.9 kMESF (inactive)"},
      {"molecule": "Oc1ccc(CNc2ccccc2)c2cccnc12", "GFP fluorescence (kMESF)": "36.5 kMESF (inactive)"},
      {"molecule": "Nc1c(C(=O)c2cccs2)sc2nsc(SCCN3CCCCC3)c12", "GFP fluorescence (kMESF)": "35.6 kMESF (inactive)"},
      {"molecule": "CCOc1cc(C=C2C(=O)c3ccccc3C2=O)ccc1OCC(=O)Nc1ccc(C)cc1", "GFP fluorescence (kMESF)": "36.1 kMESF (inactive)"},
      {"molecule": "CC1=NNC(=O)/C1=C\\c1cn(-c2ccccc2)nc1-c1ccccc1", "GFP fluorescence (kMESF)": "40.4 kMESF (inactive)"},
      {"molecule": "Cn1c(=O)c(C(=O)NNC(=O)c2ccc(Br)cc2)c(O)c2ccccc21", "GFP fluorescence (kMESF)": "26.2 kMESF (inactive)"},
      {"molecule": "C[C@@]12C(=O)OC(=O)[C@]1(C)C1CCC2O1", "GFP fluorescence (kMESF)": "32.6 kMESF (inactive)"},
      {"molecule": "CN(C)c1ccc(N=Cc2nc(-c3ccccc3)oc2OC(=O)c2cccc(Cl)c2)cc1", "GFP fluorescence (kMESF)": "30.1 kMESF (inactive)"},
      {"molecule": "O=C1ON=C(c2ccccc2)/C1=C/c1ccco1", "GFP fluorescence (kMESF)": "41.7 kMESF (inactive)"},
      {"molecule": "CC(C)[C@@]1(c2ccc(Cl)cc2)ON(c2ccccc2C(F)(F)F)C1=O", "GFP fluorescence (kMESF)": "40.5 kMESF (inactive)"},
      {"molecule": "C=CCN1C(=O)/C(=C/c2ccc(-c3ccc(F)cc3)o2)SC1=S", "GFP fluorescence (kMESF)": "35.3 kMESF (inactive)"},
      {"molecule": "O=C(O)c1ccc(COc2ccccc2C=C2C(=O)c3ccccc3C2=O)cc1", "GFP fluorescence (kMESF)": "32.6 kMESF (inactive)"},
      {"molecule": "CC(Oc1cc2oc(=O)c3c(c2cc1Cl)CCC3)C(=O)NCCN1CCOCC1", "note": "(centres undefined)", "GFP fluorescence (kMESF)": "34.8 kMESF (inactive)"},
      {"molecule": "CC(=O)Oc1oc(-c2ccccc2)nc1C=Nc1ccccc1", "GFP fluorescence (kMESF)": "33.5 kMESF (inactive)"},
      {"molecule": "CCOC(=O)/C(=C\\c1cn(C)c2ccccc12)[N+](=O)[O-]", "GFP fluorescence (kMESF)": "41.9 kMESF (inactive)"},
      {"molecule": "O=C(Oc1oc(-c2ccco2)nc1C=Nc1ccccc1)c1ccco1", "GFP fluorescence (kMESF)": "43.5 kMESF (inactive)"},
      {"molecule": "O=C1CC(c2ccccc2)=NN1c1nc(-c2ccccc2)cs1", "GFP fluorescence (kMESF)": "26 kMESF (inactive)"},
      {"molecule": "Cc1ccc(N=Nc2ccc(O)c3ncccc23)cc1", "GFP fluorescence (kMESF)": "35.1 kMESF (inactive)"},
      {"molecule": "CCSc1nnc(NC(=O)c2ccccn2)s1", "GFP fluorescence (kMESF)": "39.6 kMESF (inactive)"},
      {"molecule": "CC(c1ccccc1)N1C(=O)/C(=C/c2ccncc2)SC1=S", "note": "(centres undefined)", "GFP fluorescence (kMESF)": "24.4 kMESF (inactive)"},
      {"molecule": "CC(C)(C)c1ccc(NC(=O)COC(=O)c2ccc([N+](=O)[O-])s2)cc1", "GFP fluorescence (kMESF)": "14.7 kMESF (inactive)"},
      {"molecule": "O=C1C=CC(=O)N1c1ccc(Sc2ccc([N+](=O)[O-])cc2)cc1", "GFP fluorescence (kMESF)": "38.7 kMESF (inactive)"}
    ]}
  ]
}
